Legend:
Format in all cases: in vivo, Sprague-Dawley rats
[1] = test system: rats with a lung injury; test: BALF white blood cell count and classification (Example 2); settings: D3, 0.75 mg/kg i.v. twice, 6 rats, x ± SD
Protocol: (§1) D0: The animals in the normal control group were intraperitoneally injected with sodium chloride injection (1 ml/kg), while the animals in other groups were intraperitoneally injected with lipopolysaccharides (1 mg/kg, 1 ml/kg).
(§2) D1: After 16 h (+30 min) of intraperitoneal injection, the animals were anesthetized by inhaling isoflurane. The animals in the normal control group were nebulized with sodium chloride injection (1 mL/kg) in the trachea, while the animals in other groups were nebulized with lipopolysaccharides (5 mg/kg, 1 ml/kg) in the trachea.
(§3) Administration frequency and duration: On D1, the animals were administered for the first time within 3 h after the intratracheal nebulization with the modeling reagent (LPS); and on D2, the animals were administered for the second time. The interval between the two administrations was about 24 h (+20 min).
Sample collection: After the animals were euthanatized, the skin and tissues of the neck and chest were incised to expose the trachea, bronchi, and lungs. The bronchi in the right lung were separated and ligated. A suture was threaded under the trachea, a ½ incision was made between cartilage rings of the trachea at an appropriate position under the thyroid cartilage, a trachea cannula was slowly inserted along the incision into the airway to a left bronchus, and the inserted cannula was fastened with the trachea by using the threaded suture at an appropriate position in a centripetal direction of the incision. 3 ml of PBS buffer was slowly injected with a syringe for bronchoalveolar lavage. The lavage was repeated 3 times, with each remaining for about 10 seconds. The lavage solution was collected into a centrifuge tube of appropriate capacity.
BALF treatment: The collected lavage solution was centrifuged at 4° C. and approximately 2000 rpm for 20 min. The supernatant was stored below −60° C. for later use. The precipitate was re-suspended with I mL of PBS buffer for count and classification of white blood cells. The supernatant after BALF centrifugation was managed as a sample by using a Watson LIMS7.5 system.
Classification and test of white blood cells: White blood cells in the re-suspended BALF were counted and classified by a fully automatic blood cell analyzer.

[2] = test system: rats with a lung injury; test: Blood gas test, LPS lung injury rats (Example 2)
Protocol: as §1, §2, §3
Test time: the day after the second administration (D3)
Sample collection: The rats were anesthetized by intraperitoneal injection with chloral hydrate (350 mg/kg, 100 mg/mL), and their abdominal midline was longitudinally incised to separate the abdominal aorta. About 0.2 mL of arterial blood was collected with an arterial blood sampler. A syringe in the blood sampler was rubbed in the palm and turned upside down for 5 seconds to ensure that the blood was never returned to the blood sampler for blood mixing treatment.
Testing method: After the arterial blood was collected, a needle was gently inserted into a blood injection port of a test card, and the blood was gently pushed in and filled a sample filling tube. When the blood reached an adding position, the adding of the sample was stopped, a lid was closed, and the blood automatically entered the test tube. The test card was inserted into a blood gas analyzer to wait for test results.
Test indicators: PO2 (mmHg), PCO2 (mmHg), pH, and sO2%.

[3] = test system: rats with a lung injury; test: Survival test, LPS lung injury rats (Example 2); settings: test sample group, 0.75 mg/kg intravenous, 6 rats
Protocol: Animal grouping: 18 qualified male animals were randomly divided into a normal control group, a model control group, and a test sample group according to their body weight measured before grouping, with 6 animals per group.
as §1, §2
D1: About 3 h to 5 h after the intratracheal nebulization of the modeling reagent (LPS), the animals were administrated with the test sample or solvent according to the following table 8: […]
After planned euthanasia, a rate of a quantity of live animals in each group to a total quantity of animals in each group in an experimental period was calculated.
Survival rate (%)=the quantity of live animals in a group/the total quantity of animals in the group×100%.

[4] = test system: rats with a lung injury; test: Histopathological examination of lung, 5-grade method (Example 2)
Protocol: as §1, §2, §3
General observation: All animals in each group (including dead animals) were dissected and their tissues were stored. The animals that died during non-working hours were stored in the 2° C.-8° C. refrigerator and dissected as soon as possible within 24 hours. After dissecting and retaining tissues, animal carcasses were disposed of as medical waste.
During the autopsy, whether the lungs, trachea, and bronchi of the animals were abnormal were observed. The middle lobe of the right lung was incised and weighed for calculating a wet/dry weight ratio. The remaining tissues and bronchi of the right lung were fixed in a 10% neutral buffered formalin solution, followed by paraffin embedding, slicing, section preparation, and HE staining for pathological morphological observation of lung tissues. Standard terminologies were used for diagnosis and classification, and the lung tissues were pathologically examined by a 5-grade method (slight, mild, moderate, obvious, and severe).

[5] = test system: rats with a lung injury; test: Wet/dry ratio of the lung (Example 2)
Protocol: as §1, §2, §3
During the autopsy, whether the lungs, trachea, and bronchi of the animals were abnormal were observed. […]
Foreign matters such as blood and tissue fluid on the surface of the middle lobe tissues of the right lung were wiped with a paper towel, the right lung was weighed, then the middle lobe tissues of the right lung were placed in a 60° C. oven for 72 h, the right lung was weighed again, and the wet/dry weight ratio of the lung was calculated. […]

[6] = arterial blood, D3, 0.75 mg/kg i.v. twice, 6 rats, x ± SD
[7] = test sample group vs model control group
[8] = ++ = mild, test sample group, 6 rats, 0.75 mg/kg
[9] = +++ = moderate, test sample group, 6 rats, 0.75 mg/kg
[10] = ++++ = obvious, test sample group, 6 rats, 0.75 mg/kg
[11] = +++++ = severe, test sample group, 6 rats, 0.75 mg/kg
[12] = − = no lesion, test sample group, 6 rats, 0.75 mg/kg

Annexin A5
Lymphocytes in BALF [1]: 0.58 ± 0.22 ×10^9 cells/L | Monocytes in BALF [1]: 0.38 ± 0.47 ×10^9 cells/L | Neutrophils in BALF [1]: 2.54 ± 2.07 ×10^9 cells/L | White blood cell in BALF [1]: 3.63 ± 2.05 ×10^9 cells/L | PCO2 [2, 6]: 46.63 ± 6.17 mmHg | PO2 [2, 6]: 82.5 ± 8.7 mmHg | pH [2, 6]: 7.372 ± 0.049 | sO2 % [2, 6]: 95.5 ± 1.0 % | Change in the pH indicator ([2]; test sample group): no significant change | Change of PO2, sO2% and PCO2 after administration [2, 7]: all increased with statistical differences | Survival rate [3]: 100% | Bleeding of the lung under a microscope ([4]; 0.75 mg/kg i.v. twice, D3): mildly | Infiltration of the lung by inflammatory cells under a microscope ([4]; 0.75 mg/kg i.v. twice, D3): moderately to obviously | Proliferation of alveolar epithelial cells under a microscope ([4]; 0.75 mg/kg i.v. twice, D3): mild to moderate | Degree of alveolar wall thickening lesion: number of animals with grade ++ [4, 8]: 3 | Degree of inflammatory cell infiltrating lesion: number of animals with grade ++ [4, 8]: 0 | Degree of alveolar wall thickening lesion: number of animals with grade +++ [4, 9]: 3 | Degree of inflammatory cell infiltrating lesion: number of animals with grade +++ [4, 9]: 2 | Degree of alveolar wall thickening lesion: number of animals with grade ++++ [4, 10]: 0 | Degree of inflammatory cell infiltrating lesion: number of animals with grade ++++ [4, 10]: 4 | Degree of alveolar wall thickening lesion: number of animals with grade +++++ [4, 11]: 0 | Degree of inflammatory cell infiltrating lesion: number of animals with grade +++++ [4, 11]: 0 | Change of inflammatory cell infiltrating lesions ([4]; in all rats, vs model): changed from severe and obvious to obvious and moderate | Change of alveolar wall thickness ([4]; in half of the rats, vs model): changed from moderate to mild | Degree of lung lesions [4, 7]: lower than that of the model control group | Degree of alveolar wall thickening lesion: number of animals with grade − [4, 12]: 0 | Degree of inflammatory cell infiltrating lesion: number of animals with grade − [4, 12]: 0 | Wet/dry ratio of the lung ([5]; middle lobe of right lung, 0.75 mg/kg i.v. twice, 6 rats, x ± SD): 4.68 ± 0.08 | Change of wet/dry ratio of the lung ([5]; test sample group): decreased

From US20240189388A1, “MEDICATION FOR TREATING LUNG INJURY” (SHANGHAI SEME CELL TECHNOLOGY CO., LTD., priority 2021, published 2024)
